The target in experiment [1] is protein-protein interaction between Kras and SOS1 (biotin-tagged human Kras loaded with GDP, His-tagged human SOS1) (Homo sapiens (Human), UniProt P01116, G12D). Description: Protein-protein interaction inhibition between Kras and SOS1 (KrasG12D-SOS PPI) using AlphaScreen.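 Note: kras produced in E. coli, Ni-coupled donor beads and streptavidin acceptor beads, excitation 680 nm with emission detected at 520–620 nm via singlet oxygen transfer.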 It is filed as biochemical. The settings on record: AlphaScreen; biotin-tagged human Kras loaded with GDP, His-tagged human SOS1; read-out: KRAS G12D-SOS PPI IC50. (In general: Alpha assays give light when donor and acceptor beads are brought close together.)

Experiment [2] has as its system Human pancreatic cancer cell line AsPC-1 (G12D mutation Kras). The experiment in a line: AsPC-1 cell growth inhibition (AsPC-1 CGI). It is filed as cell-based. The settings on record: read-out: AsPC-1 cell growth inhibition, 50% growth inhibitory concentration (IC50 value); 96 hours, CellTiter-Glo, values classified in ranges. On the technique in general: In ATP-based viability assays light output follows the ATP content of the culture.
Procedure: Test compounds were serially dilated with dimethyl sulfoxide, and 200 nL was then dispensed to a U-bottom 96-well plate using Labcyte Echo. […] The cell suspension was dispensed to a. plate containing a test compound at 100 μL per well and incubated at 37° C. in a 5% carbon dioxide gas incubator. 96 hours later, 80 μL of CellTiter-Glo (Promega) was added to each well and fluorescence was measured.

Molecules are shown by their SMILES. Numbered stars: 1 amine (or outer) side, 2 acyl side, 3 side chain; on linkers, the order of the positions; unused ones are H or OH. Bridge positions count the residues as written; N and C are the ends. Square brackets hold non-standard residues; d marks the D form. Peptide text beside a SMILES is read from it. * marks the point of attachment. hPhe(3-Cl-4-CF3) = N[C@@H](CCc1ccc(C(F)(F)F)c(Cl)c1)C(=O)O; NMePhe(4-Me) = CN[C@@H](Cc1ccc(C)cc1)C(=O)O; NMedβ3hAla = C[C@H](CC(=O)[*:2])N(C)[*:1]; NMeNva(5,5-F2) = CN[C@@H](CCC(F)F)C(=O)O; NMeGly(cPent) = CN[C@H](C(=O)O)C1CCCC1; NMe3Pal = CN[C@@H](Cc1cccnc1)C(=O)O; NMeCha = CN[C@@H](CC1CCCCC1)C(=O)O; NMehLeu = CN[C@@H](CCC(C)C)C(=O)O; NMeAhp(2) = CCCCC[C@H](NC)C(=O)O; NMeChg = CN[C@H](C(=O)O)C1CCCCC1; NMeF = CN[C@@H](Cc1ccccc1)C(=O)O; NMeI = CC[C@H](C)[C@H](NC)C(=O)O; NMeD = CN[C@@H](CC(=O)O)C(=O)O; NMeL = CN[C@@H](CC(C)C)C(=O)O; NMeV = CN[C@H](C(=O)O)C(C)C; d(β3hA) = C[C@@H](N)CC(=O)O; NMeAbu = CC[C@H](NC)C(=O)O; NMeS = CN[C@@H](CO)C(=O)O; Ac6c = NC1(C(=O)O)CCCCC1; Morpholide = C1CN(*)CCO1; NMeA = CN[C@@H](C)C(=O)O; Piperidide = C1CCN(*)CC1; dNMeA = CN[C@H](C)C(=O)O; Ac5c = NC1(C(=O)O)CCCC1; Aze = O=C(O)[C@@H]1CCN1; Abu = CC[C@H](N)C(=O)O; Sar = CNCC(=O)O

In the case of `CC[C@H](C)[C@@H]1NC(=O)[C@H](CC(C)C)N(C)C(=O)C[C@@H](C)NC(=O)[C@H](C2CCCCC2)N(C)C(=O)C2(CCCC2)NC(=O)[C@@H]2CCCN2C(=O)[C@H](CCc2ccc(C(F)(F)F)c(Cl)c2)NC(=O)CN(C)C(=O)[C@H](CC2CCCCC2)N(C)C(=O)[C@@H]2CCN2C(=O)[C@H](C)N(C)C1=O` [Compound 1706] (cyclo([Ac5c][NMeChg][d(β3hA)][NMeL]I[NMeA][Aze][NMeCha][Sar][hPhe(3-Cl-4-CF3)]P)), the results for the IC50 in experiment [1] and in experiment [2] were 140 nM and over 500 nM, respectively.
`CCCCC[C@H]1C(=O)N(C)[C@H](C(=O)N2CCCCC2)CC(=O)N(C)[C@@H](CC(C)C)C(=O)N[C@@H]([C@@H](C)CC)C(=O)N(C)[C@@H](C)C(=O)N2CC[C@H]2C(=O)N(C)[C@@H](CC2CCCCC2)C(=O)N(C)CC(=O)N[C@@H](CCc2ccc(C(F)(F)F)c(Cl)c2)C(=O)N2CCC[C@H]2C(=O)NC2(CCCC2)C(=O)N1C` [Compound 1707] ([NMeL]I[NMeA][Aze][NMeCha][Sar][hPhe(3-Cl-4-CF3)]P[Ac5c][NMeAhp(2)][NMeD]-Piperidide; lactam N-11): the IC50 is 180 nM in experiment [1] and over 500 nM in experiment [2].
For `CC[C@H](C)[C@@H]1NC(=O)[C@H](CC(C)C)N(C)C(=O)C[C@@H](C(=O)N2CCCCC2)N(C)C(=O)[C@H](C(C)C)N(C)C(=O)C2(CCCCC2)NC(=O)[C@@H]2CCCN2C(=O)[C@H](CCc2ccc(C(F)(F)F)c(Cl)c2)NC(=O)CN(C)C(=O)[C@H](CC2CCCCC2)N(C)C(=O)[C@@H]2CCN2C(=O)[C@H](C)N(C)C1=O` [Compound 1708] ([NMeL]I[NMeA][Aze][NMeCha][Sar][hPhe(3-Cl-4-CF3)]P[Ac6c][NMeV][NMeD]-Piperidide; lactam N-11), in that order: 10 nM and over 500 nM.
For `CC[C@H](C)[C@@H]1NC(=O)[C@H](C)N(C)C(=O)C[C@@H](C(=O)N2CCOCC2)N(C)C(=O)[C@H](C2CCCCC2)N(C)C(=O)C2(CCCC2)NC(=O)[C@H](Cc2cccnc2)N(C)C(=O)[C@H](CCc2ccc(C(F)(F)F)c(Cl)c2)NC(=O)CN(C)C(=O)[C@H](CC2CCCCC2)N(C)C(=O)CN(C)C(=O)CN(C)C1=O` [Compound 1718] ([NMeA]I[Sar][Sar][NMeCha][Sar][hPhe(3-Cl-4-CF3)][NMe3Pal][Ac5c][NMeChg][NMeD]-Morpholide; lactam N-11), in that order: 0.8 nM and over 500 nM.
`CC[C@H](C)[C@@H]1NC(=O)[C@H](CC(C)C)N(C)C(=O)C[C@@H](C(=O)N2CCCCC2)N(C)C(=O)[C@H](C(C)C)N(C)C(=O)C2(CCCC2)NC(=O)[C@@H]2CCCN2C(=O)[C@H](CCc2ccc(C(F)(F)F)c(Cl)c2)NC(=O)CN(C)C(=O)[C@H](CO)N(C)C(=O)[C@@H]2CCN2C(=O)[C@H](C)N(C)C1=O` [Compound 1721] ([NMeL]I[NMeA][Aze][NMeS][Sar][hPhe(3-Cl-4-CF3)]P[Ac5c][NMeV][NMeD]-Piperidide; lactam N-11): the IC50 in experiment [1] was 22 nM; in experiment [2], over 500 nM.
For `CC[C@H](C)[C@@H]1NC(=O)[C@H](C)N(C)C(=O)C[C@@H](C(=O)N2CCCCC2)N(C)C(=O)[C@H](C(C)C)N(C)C(=O)C2(CCCC2)NC(=O)[C@@H]2CCCN2C(=O)[C@H](CCc2ccc(C(F)(F)F)c(Cl)c2)NC(=O)[C@@H](C)N(C)C(=O)[C@H](Cc2ccccc2)N(C)C(=O)[C@@H]2CCN2C(=O)[C@H](C)N(C)C1=O` [Compound 1724] ([NMeA]I[NMeA][Aze][NMeF][dNMeA][hPhe(3-Cl-4-CF3)]P[Ac5c][NMeV][NMeD]-Piperidide; lactam N-11), in that order: 16 nM and over 500 nM.
For `CC[C@H](C)[C@@H]1NC(=O)[C@H](CC(C)C)N(C)C(=O)C[C@@H](C)N(C)C(=O)[C@H]([C@@H](C)CC)N(C)C(=O)C2(CCCC2)NC(=O)[C@@H]2CCCN2C(=O)[C@H](CCc2ccc(C(F)(F)F)c(Cl)c2)NC(=O)CN(C)C(=O)[C@H](CC2CCCCC2)N(C)C(=O)[C@@H]2CCN2C(=O)[C@H](C)N(C)C1=O` [Compound 1733] (cyclo([Ac5c][NMeI][NMedβ3hAla][NMeL]I[NMeA][Aze][NMeCha][Sar][hPhe(3-Cl-4-CF3)]P)), in that order: 130 nM and over 500 nM.
As for `CC[C@H](C)[C@@H]1NC(=O)[C@H](CC(C)C)N(C)C(=O)C[C@@H](C(=O)N2CCOCC2)N(C)C(=O)[C@H](C2CCCCC2)N(C)C(=O)C2(CCCC2)NC(=O)[C@H](Cc2cccnc2)N(C)C(=O)[C@H](CCc2ccc(C(F)(F)F)c(Cl)c2)NC(=O)CN(C)C(=O)[C@H](CC2CCCCC2)N(C)C(=O)CN(C)C(=O)CN(C)C1=O` [Compound 1745] ([NMeL]I[Sar][Sar][NMeCha][Sar][hPhe(3-Cl-4-CF3)][NMe3Pal][Ac5c][NMeChg][NMeD]-Morpholide; lactam N-11), the results for the IC50 in experiment [1] and in experiment [2] were 1.3 nM and over 500 nM, respectively.
For `CC[C@H](C)[C@@H]1NC(=O)[C@H](CC(C)C)N(C)C(=O)C[C@@H](C)NC(=O)[C@H](C2CCCCC2)N(C)C(=O)C2(CCCC2)NC(=O)[C@@H]2CCCN2C(=O)[C@H](CCc2ccc(C(F)(F)F)c(Cl)c2)NC(=O)CN(C)C(=O)[C@H](Cc2ccc(C)cc2)N(C)C(=O)[C@@H]2CCN2C(=O)[C@H](C)N(C)C1=O` [Compound 1747] (cyclo([Ac5c][NMeChg][d(β3hA)][NMeL]I[NMeA][Aze][NMePhe(4-Me)][Sar][hPhe(3-Cl-4-CF3)]P)), in that order: 16 nM and over 500 nM.
On the same counts, the results for `CC[C@H](C)[C@@H]1NC(=O)[C@H](CC(C)C)N(C)C(=O)C[C@@H](C)N(C)C(=O)[C@H](C2CCCC2)N(C)C(=O)C2(CCCC2)NC(=O)[C@@H]2CCCN2C(=O)[C@H](CCc2ccc(C(F)(F)F)c(Cl)c2)NC(=O)CN(C)C(=O)[C@H](Cc2ccc(C)cc2)N(C)C(=O)[C@@H]2CCN2C(=O)[C@H](C)N(C)C1=O` [Compound 1750] (cyclo([Ac5c][NMeGly(cPent)][NMedβ3hAla][NMeL]I[NMeA][Aze][NMePhe(4-Me)][Sar][hPhe(3-Cl-4-CF3)]P)) are 1.3 nM and at most 20 nM.
As to `CC[C@H](C)[C@@H]1NC(=O)[C@H](CC(C)C)N(C)C(=O)C[C@@H](C(=O)N2CCCCC2)N(C)C(=O)[C@H](C(C)C)N(C)C(=O)C2(CCCC2)NC(=O)[C@@H]2CCCN2C(=O)[C@H](CCc2ccc(C(F)(F)F)c(Cl)c2)NC(=O)CN(C)C(=O)[C@H](CC)N(C)C(=O)[C@@H]2CCN2C(=O)[C@H](C)N(C)C1=O` [Compound 1752] ([NMeL]I[NMeA][Aze][NMeAbu][Sar][hPhe(3-Cl-4-CF3)]P[Ac5c][NMeV][NMeD]-Piperidide; lactam N-11), the IC50 in experiment [1] was 17 nM; in experiment [2] it was over 500 nM.
For `CC[C@@H]1NC(=O)[C@H](CC(C)C)N(C)C(=O)C[C@@H](C(=O)N2CCCCC2)N(C)C(=O)[C@H](C(C)C)N(C)C(=O)C2(CCCC2)NC(=O)[C@@H]2CCCN2C(=O)[C@H](CCc2ccc(C(F)(F)F)c(Cl)c2)NC(=O)CN(C)C(=O)[C@H](CC2CCCCC2)N(C)C(=O)[C@@H]2CCN2C(=O)[C@H](C)N(C)C1=O` [Compound 1760] ([NMeL][Abu][NMeA][Aze][NMeCha][Sar][hPhe(3-Cl-4-CF3)]P[Ac5c][NMeV][NMeD]-Piperidide; lactam N-11), in that order: 32 nM and over 500 nM.
For `CC[C@H](C)[C@@H]1NC(=O)[C@H](CC(C)C)N(C)C(=O)C[C@@H](C(=O)N2CCCCC2)N(C)C(=O)[C@H](C(C)C)N(C)C(=O)C2(CCCC2)NC(=O)[C@@H]2CCCN2C(=O)[C@H](CCc2ccc(C(F)(F)F)c(Cl)c2)NC(=O)CN(C)C(=O)[C@H](CCC(F)F)N(C)C(=O)[C@@H]2CCN2C(=O)[C@H](C)N(C)C1=O` [Compound 1769] ([NMeL]I[NMeA][Aze][NMeNva(5,5-F2)][Sar][hPhe(3-Cl-4-CF3)]P[Ac5c][NMeV][NMeD]-Piperidide; lactam N-11), in that order: 11 nM and over 500 nM.
On the same counts, the results for `CC[C@H](C)[C@@H]1NC(=O)[C@H](CC(C)C)N(C)C(=O)C[C@@H](C(=O)N2CCCCC2)N(C)C(=O)[C@H](C2CCCC2)N(C)C(=O)C2(CCCC2)NC(=O)[C@@H]2CCCN2C(=O)[C@H](CCc2ccc(C(F)(F)F)c(Cl)c2)NC(=O)CN(C)C(=O)[C@H](Cc2ccc(C)cc2)N(C)C(=O)[C@@H]2CCN2C(=O)[C@H](C)N(C)C1=O` [Compound 1772] ([NMeL]I[NMeA][Aze][NMePhe(4-Me)][Sar][hPhe(3-Cl-4-CF3)]P[Ac5c][NMeGly(cPent)][NMeD]-Piperidide; lactam N-11) are 0.75 nM and at most 20 nM.
In the case of `CC[C@H](C)[C@@H]1NC(=O)[C@H](CC(C)C)N(C)C(=O)C[C@@H](C(=O)N2CCCCC2)N(C)C(=O)[C@H](CCC(C)C)N(C)C(=O)C2(CCCC2)NC(=O)[C@@H]2CCCN2C(=O)[C@H](CCc2ccc(C(F)(F)F)c(Cl)c2)NC(=O)CN(C)C(=O)[C@H](CC2CCCCC2)N(C)C(=O)[C@@H]2CCN2C(=O)[C@H](C)N(C)C1=O` [Compound 1776] ([NMeL]I[NMeA][Aze][NMeCha][Sar][hPhe(3-Cl-4-CF3)]P[Ac5c][NMehLeu][NMeD]-Piperidide; lactam N-11), the IC50 in experiment [1] was 24 nM; in experiment [2] it was over 500 nM.
For `CC[C@H](C)[C@@H]1NC(=O)[C@H](CC(C)C)N(C)C(=O)C[C@@H](C(=O)N(C)C)N(C)C(=O)[C@H](C2CCCC2)N(C)C(=O)C2(CCCC2)NC(=O)[C@@H]2CCCN2C(=O)[C@H](CCc2ccc(C(F)(F)F)c(Cl)c2)NC(=O)CN(C)C(=O)[C@H](CC2CCCCC2)N(C)C(=O)[C@@H]2CCN2C(=O)[C@H](C)N(C)C1=O` [Compound 1777] ([NMeL]I[NMeA][Aze][NMeCha][Sar][hPhe(3-Cl-4-CF3)]P[Ac5c][NMeGly(cPent)][NMeD]-NMe2; lactam N-11), in that order: 0.63 nM and at most 20 nM.

The values above are taken from patent US20240148821A1, “PHARMACEUTICAL USE OF CYCLIC PEPTIDE COMPOUND” (CHUGAI SEIYAKU KABUSHIKI KAISHA, priority 2021, published 2024).
